This is an account of results in patent US20250283110A1, “METHODS AND COMPOSITIONS FOR TRANSDUCTION OF NK CELLS” (ST. JUDE CHILDREN'S RESEARCH HOSPITAL, INC., priority 2021, published 2025).

“Also recorded” adds a separate entry of the source.

Experiment [1] concerns NK cells. Briefly: cells. The format is cell-based. Conditions: Homo sapiens, 72 h; N=3; read-out: EC50 of YFP expression in NK cells.
Experiment [2] deals with TBK1/IKKε. Conditions: Ref. 20; cited from earlier work.
The subject of experiment [3] is NK cells. Description: NK cell immunophenotyping by flow cytometry with and without inhibitor. The format is cell-based, Human. Conditions: 2 μM for 24 hours, then 48 hours fresh media; N=3; paired two-tailed t-test treated vs untreated. The protocol: FIGS. 4A-4B show representative data relating to NK cell phenotype with and without treatment with a representative disclosed compound, MRT67307. Briefly, NK cells were treated with and without 2μMMRT67307 for 24 hours. Media was removed and replaced with fresh complete media and cells incubated for another 48 hours. Cells were immunophenotyped via flow cytometry. NK cells were identified as efluor455UV negative, CD3 negative, and CD56 positive.
250,000 NK cells were collected and washed twice in DPBS. Surface HER2-CAR detection was determined via immunolabeling with anti-F (ab′) 2-AF647 (109-606-006, Jackson Labs, Bar Harbor, ME, USA; 1:100), CD19-CAR was detected with PE conjugated recombinant human CD19 protein (3309HP, Creative Biomart, Shirley, NY, USA; 1:100), or YFP were utilized for detection on a BD FACS Lyric machine and analyzed with FlowJo v10 (BD). Immunophenotyping was performed on a BD Symphony flow cytometer. Antibodies used are delineated in below in Table 1.

`O=C(NCCCNc1nc(Nc2cccc(NC(=O)N3CCCC3)c2)ncc1I)c1cccs1` [BX-795]: in experiment [1], the EC50 was 5 µM.
Turning to `O=C(NCCCNc1nc(Nc2cccc(CN3CCOCC3)c2)ncc1C1CC1)C1CCC1` [MRT67307, N-[3-[[5-cyclopropyl-2-[3-(morpholin-4-ylmethyl)anilino]pyrimidin-4-yl]amino]propyl]cyclobutanecarboxamide], the “specificity for TBK1/IKKε” value in experiment [2] is “more specific for TBK1/IKKε than BX-795”. For the same compound, in experiment [1], the EC50 is 1.1 µM. Further, the “effect on NK cell phenotype” value in experiment [3] was “no effect; also recorded: No parameter was significantly different”.
